Measured values reported in ChEMBL document CHEMBL1909046, “DrugMatrix in vitro pharmacology data”.

Assays:
[1] = biological target: 5-hydroxytryptamine receptor 4 (Cavia porcellus, UniProt O70528); type: cell membranes, Dunkin-Hartley, Striatum, Membrane; further: in other assays of this panel Not Active means under 50% inhibition at 10 µM
[2] = biological target: 5-hydroxytryptamine receptor 6 (Homo sapiens, UniProt P50406); type: cell membranes, HeLa, Membrane; settings: hela; further: in other assays of this panel Not Active means under 50% inhibition at 10 µM
Sequence of 5-hydroxytryptamine receptor 6 (P50406 whole entry): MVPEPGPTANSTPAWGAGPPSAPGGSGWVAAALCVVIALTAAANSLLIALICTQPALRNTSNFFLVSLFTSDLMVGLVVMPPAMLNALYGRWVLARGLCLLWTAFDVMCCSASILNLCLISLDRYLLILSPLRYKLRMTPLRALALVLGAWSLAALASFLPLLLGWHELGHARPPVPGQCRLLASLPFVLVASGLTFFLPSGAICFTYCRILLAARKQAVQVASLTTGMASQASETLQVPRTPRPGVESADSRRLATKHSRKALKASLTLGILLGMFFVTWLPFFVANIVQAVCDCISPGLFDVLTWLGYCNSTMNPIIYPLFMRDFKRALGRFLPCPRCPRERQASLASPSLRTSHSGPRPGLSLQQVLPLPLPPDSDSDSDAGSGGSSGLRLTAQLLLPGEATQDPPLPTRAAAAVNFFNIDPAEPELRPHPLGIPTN

[3] = biological target: Sigma non-opioid intracellular receptor 1 (Homo sapiens, UniProt Q99720); assay: DRUGMATRIX: Sigma1 radioligand binding (ligand: [3H] Haloperidol); type: cell membranes, Jurkat, Membrane; settings: jurkat; Not Active = under 50% inhibition at 10 µM
Sequence of Sigma non-opioid intracellular receptor 1 (Q99720 whole entry): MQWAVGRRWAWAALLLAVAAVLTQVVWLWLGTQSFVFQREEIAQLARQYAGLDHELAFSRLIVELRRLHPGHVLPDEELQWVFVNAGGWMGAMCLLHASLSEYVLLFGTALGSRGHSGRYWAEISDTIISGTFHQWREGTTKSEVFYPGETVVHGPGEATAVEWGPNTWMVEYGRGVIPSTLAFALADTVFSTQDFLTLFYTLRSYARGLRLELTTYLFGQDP

[4] = DRUGMATRIX: Sigma2 radioligand binding (ligand: [3H] Ifenprodil); type: cell membranes, Rattus norvegicus, Wistar, Brain, Membrane; settings: Not Active = under 50% inhibition at 10 µM
[5] = biological target: T1, Angiotensin-converting enzyme (Oryctolagus cuniculus, UniProt P12822); type: tissue-based, Lung;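 further: enzymatic inhibition of angiotensin-converting enzyme measured with FAPGG as the substrate; in other assays of this panel Not Active means under 50% inhibition at 10 µM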
T1 sequence (P12822 whole entry): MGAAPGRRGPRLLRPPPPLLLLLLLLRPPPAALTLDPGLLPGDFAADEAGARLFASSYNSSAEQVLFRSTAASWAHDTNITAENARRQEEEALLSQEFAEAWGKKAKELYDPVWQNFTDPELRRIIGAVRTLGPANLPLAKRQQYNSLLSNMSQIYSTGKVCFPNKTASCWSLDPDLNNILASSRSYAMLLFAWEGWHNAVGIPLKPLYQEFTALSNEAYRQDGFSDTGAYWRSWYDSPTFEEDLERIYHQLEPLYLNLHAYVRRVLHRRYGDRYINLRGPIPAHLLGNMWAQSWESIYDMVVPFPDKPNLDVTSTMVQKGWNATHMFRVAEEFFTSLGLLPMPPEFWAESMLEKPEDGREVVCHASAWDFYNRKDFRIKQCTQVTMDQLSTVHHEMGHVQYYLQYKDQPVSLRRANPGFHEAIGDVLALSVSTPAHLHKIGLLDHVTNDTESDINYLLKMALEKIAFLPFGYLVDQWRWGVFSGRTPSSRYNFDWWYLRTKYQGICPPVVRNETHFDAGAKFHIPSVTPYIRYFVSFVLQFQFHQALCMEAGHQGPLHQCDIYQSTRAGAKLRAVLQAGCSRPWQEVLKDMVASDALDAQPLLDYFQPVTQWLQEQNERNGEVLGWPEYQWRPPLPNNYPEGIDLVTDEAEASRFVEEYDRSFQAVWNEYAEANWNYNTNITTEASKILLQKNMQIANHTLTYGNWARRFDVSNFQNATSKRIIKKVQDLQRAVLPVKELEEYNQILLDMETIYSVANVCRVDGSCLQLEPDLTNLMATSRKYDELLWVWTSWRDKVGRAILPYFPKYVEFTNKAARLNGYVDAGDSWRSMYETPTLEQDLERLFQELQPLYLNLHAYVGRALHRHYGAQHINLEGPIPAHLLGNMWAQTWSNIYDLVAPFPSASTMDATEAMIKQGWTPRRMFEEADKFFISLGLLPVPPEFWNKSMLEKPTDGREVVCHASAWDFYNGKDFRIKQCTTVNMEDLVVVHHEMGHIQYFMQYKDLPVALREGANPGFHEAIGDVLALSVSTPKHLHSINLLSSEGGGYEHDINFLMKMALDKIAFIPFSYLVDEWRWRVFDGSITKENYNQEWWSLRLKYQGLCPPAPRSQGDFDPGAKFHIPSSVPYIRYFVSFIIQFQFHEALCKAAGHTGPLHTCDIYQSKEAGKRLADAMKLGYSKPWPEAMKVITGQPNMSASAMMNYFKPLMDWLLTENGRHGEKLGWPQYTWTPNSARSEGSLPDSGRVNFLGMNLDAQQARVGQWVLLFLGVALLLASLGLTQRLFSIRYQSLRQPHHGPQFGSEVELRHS

Cytochrome P450 2C19 = Cytochrome P450 2C19 (Homo sapiens, UniProt P33261); settings: bti-tn-5b1-4; further: in other assays of this panel Not Active means under 50% inhibition at 10 µM
Sequence of Cytochrome P450 2C19 (P33261 whole entry): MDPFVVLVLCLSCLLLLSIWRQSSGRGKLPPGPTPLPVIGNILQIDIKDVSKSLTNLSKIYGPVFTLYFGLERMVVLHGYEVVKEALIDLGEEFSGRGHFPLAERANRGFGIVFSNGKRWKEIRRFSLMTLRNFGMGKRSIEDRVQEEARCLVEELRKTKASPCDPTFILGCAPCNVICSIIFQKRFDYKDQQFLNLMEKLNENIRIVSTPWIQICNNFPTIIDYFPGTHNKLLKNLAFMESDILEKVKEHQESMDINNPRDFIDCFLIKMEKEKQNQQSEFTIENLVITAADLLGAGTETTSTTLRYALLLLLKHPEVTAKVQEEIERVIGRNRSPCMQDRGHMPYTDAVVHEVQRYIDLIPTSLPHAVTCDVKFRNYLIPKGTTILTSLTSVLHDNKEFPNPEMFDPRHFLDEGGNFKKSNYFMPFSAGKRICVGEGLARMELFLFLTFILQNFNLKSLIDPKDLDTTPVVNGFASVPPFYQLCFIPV

Sequence of 5-hydroxytryptamine receptor 4 (O70528 whole entry): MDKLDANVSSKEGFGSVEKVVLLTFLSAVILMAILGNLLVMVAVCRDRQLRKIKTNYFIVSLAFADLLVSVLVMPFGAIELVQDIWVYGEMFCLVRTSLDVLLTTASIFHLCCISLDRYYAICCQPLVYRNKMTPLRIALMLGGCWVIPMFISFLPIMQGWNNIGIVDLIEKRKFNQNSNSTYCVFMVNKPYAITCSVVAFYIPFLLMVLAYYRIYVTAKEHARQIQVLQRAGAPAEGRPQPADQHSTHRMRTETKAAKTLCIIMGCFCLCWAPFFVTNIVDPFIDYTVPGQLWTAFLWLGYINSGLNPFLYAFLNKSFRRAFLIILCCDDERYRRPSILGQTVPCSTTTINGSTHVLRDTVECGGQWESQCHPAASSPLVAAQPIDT

SMILES	IC50 [1]	IC50 [2]	IC50 [3]	IC50 [4]	Ki [4]	IC50 [5]	IC50 (Cytochrome P450 2C19)	Ki (Cytochrome P450 2C19)	IC50 ([1]; read-out: IC50) [µM]	Ki ([1]; read-out: Ki) [nM]
CCC(=O)O[C@H]1[C@H](O[C@@H]2[C@@H](C)[C@H](O[C@H]3C[C@@](C)(OC)[C@@H](O)[C@H](C)O3)[C@@H](C)C(=O)O[C@H](CC)[C@@](C)(O)[C@H](O)[C@@H](C)C(=O)[C@H](C)C[C@@]2(C)O)O[C@H](C)C[C@@H]1N(C)C [ERYTHROMYCIN PROPIONATE]	Not Active	Not Active	Not Active	Not Active	Not Active	Not Active	Not Active	Not Active		
C=C(CC)C(=O)c1ccc(OCC(=O)O)c(Cl)c1Cl [ETHACRYNIC ACID]	Not Active	Not Active	Not Active	Not Active	Not Active	Not Active	Not Active	Not Active		
C#C[C@]1(O)CC[C@H]2[C@@H]3CCc4cc(O)ccc4[C@H]3CC[C@@]21C [ETHINYL ESTRADIOL]		Not Active	Not Active	Not Active	Not Active	Not Active	Not Active	Not Active	7.95	1330
OCCO [ETHYLENE GLYCOL]	Not Active	Not Active	Not Active	Not Active	Not Active	Not Active	Not Active	Not Active		
CC(=O)OCC(CCn1cnc2cnc(N)nc21)COC(C)=O [FAMCICLOVIR]	Not Active	Not Active	Not Active	Not Active	Not Active	Not Active	Not Active	Not Active		
CC(C(=O)O)c1ccc(-c2ccccc2)c(F)c1 (stereo unspecified) [FLURBIPROFEN]	Not Active	Not Active	Not Active	Not Active	Not Active	Not Active	Not Active	Not Active		
NC[C@@H]1O[C@H](O[C@H]2[C@@H](O)[C@H](O[C@@H]3[C@@H](O)[C@H](N)C[C@H](N)[C@H]3O[C@H]3O[C@H](CN)[C@@H](O)[C@H](O)[C@H]3N)O[C@@H]2CO)[C@H](N)[C@@H](O)[C@@H]1O [FRAMYCETIN]	Not Active	Not Active	Not Active	Not Active	Not Active	Not Active	Not Active	Not Active		
C[C@H]([C@](O)(Cn1cncn1)c1ccc(F)cc1F)S(C)(=O)=O [GENACONAZOLE]	Not Active	Not Active	Not Active	Not Active	Not Active	Not Active	Not Active	Not Active		
Cc1c(F)c(N2CCNC(C)C2)cc2c1c(=O)c(C(=O)O)cn2C1CC1 (stereo unspecified) [GREPAFLOXACIN]	Not Active	Not Active	Not Active	Not Active	Not Active	Not Active	Not Active	Not Active		
N=C(N)N/N=C/c1c(Cl)cccc1Cl [GUANABENZ]	Not Active	Not Active	Not Active	Not Active	Not Active	Not Active	Not Active	Not Active		
C[C@]12CCC(=O)C=C1CC[C@@H]1[C@@H]2[C@@H](O)C[C@@]2(C)[C@H]1CC[C@]2(O)C(=O)CO [HYDROCORTISONE]	Not Active	Not Active	Not Active	Not Active	Not Active	Not Active	Not Active	Not Active		
NC[C@H]1O[C@H](O[C@H]2[C@H](O)[C@@H](O[C@H]3O[C@H](CO)[C@@H](O)[C@H](N)[C@H]3O)[C@H](N)C[C@@H]2N)[C@H](O)[C@@H](O)[C@@H]1O [KANAMYCIN]	Not Active	Not Active	Not Active	Not Active	Not Active	Not Active	Not Active	Not Active		
CC(C(=O)O)c1ccc(CC2CCCC2=O)cc1 (stereo unspecified) [LOXOPROFEN]	Not Active	Not Active	Not Active	Not Active	Not Active	Not Active	Not Active	Not Active		
Cc1cccc(Nc2ccccc2C(=O)O)c1C [MEFENAMIC ACID]	Not Active	Not Active	Not Active	Not Active	Not Active	Not Active	Not Active	Not Active		
CC(=O)O[C@]1(C(C)=O)CC[C@H]2[C@@H]3C=C(C)C4=CC(=O)CC[C@]4(C)[C@H]3CC[C@@]21C [MEGESTROL ACETATE]	Not Active	Not Active	Not Active	Not Active	Not Active	Not Active	Not Active	Not Active		
COc1ccccc1OCC(O)COC(N)=O (stereo unspecified) [METHOCARBAMOL]	Not Active	Not Active	Not Active	Not Active	Not Active	Not Active	Not Active	Not Active		
CN(Cc1cnc2nc(N)nc(N)c2n1)c1ccc(C(=O)N[C@@H](CCC(=O)O)C(=O)O)cc1 [METHOTREXATE]	Not Active	Not Active	Not Active	Not Active	Not Active	Not Active	Not Active	Not Active		
COC(=O)c1ccccc1O [METHYL SALICYLATE]	Not Active	Not Active	Not Active	Not Active	Not Active	Not Active	Not Active	Not Active		
COc1ccc2cc(CCC(C)=O)ccc2c1 [NABUMETONE]	Not Active	Not Active	Not Active	Not Active	Not Active	Not Active	Not Active	Not Active		
O=C(O)c1cccnc1 [NIACIN]	Not Active	Not Active	Not Active	Not Active	Not Active	Not Active	Not Active	Not Active		
C[C@]12C/C(=C/O)C(=O)C[C@@H]1CC[C@@H]1[C@@H]2CC[C@@]2(C)[C@H]1CC[C@]2(C)O [OXYMETHOLONE]	Not Active	Not Active	Not Active	Not Active	Not Active	Not Active	Not Active	Not Active		
CC(C)(CO)C(O)C(=O)NCCCO (stereo unspecified) [PANTHENOL]	Not Active	Not Active	Not Active	Not Active	Not Active	Not Active	Not Active	Not Active		
CCCCC1C(=O)N(c2ccccc2)N(c2ccccc2)C1=O [PHENYLBUTAZONE]	Not Active	Not Active	Not Active	Not Active	Not Active	Not Active	Not Active	Not Active		
Cc1cccc(Nc2cc(Cl)nc(SCC(=O)O)n2)c1C [PIRINIXIC ACID]	Not Active	Not Active	Not Active	Not Active	Not Active	Not Active	Not Active	Not Active		
CC[C@H](C)C(=O)O[C@H]1C[C@H](O)C=C2C=C[C@H](C)[C@H](CC[C@@H](O)C[C@@H](O)CC(=O)O)[C@H]21 [PRAVASTATIN]	Not Active	Not Active	Not Active	Not Active	Not Active	Not Active	Not Active	Not Active		
